BindingDB's records for doi:10.7270/Q2PC30Z9 (Burnham Center For Chemical Genomics, 2012)

Molecular target: 26S proteasome non-ATPase regulatory subunit 14 (Homo sapiens, UniProt O00487)
Assay: inhibition of proteasome subunit RPN11 – biochemical, fluorescence polarization, uHTS hits, confirmation (AID 602368)

Sequence of 26S proteasome non-ATPase regulatory subunit 14 (O00487 whole entry): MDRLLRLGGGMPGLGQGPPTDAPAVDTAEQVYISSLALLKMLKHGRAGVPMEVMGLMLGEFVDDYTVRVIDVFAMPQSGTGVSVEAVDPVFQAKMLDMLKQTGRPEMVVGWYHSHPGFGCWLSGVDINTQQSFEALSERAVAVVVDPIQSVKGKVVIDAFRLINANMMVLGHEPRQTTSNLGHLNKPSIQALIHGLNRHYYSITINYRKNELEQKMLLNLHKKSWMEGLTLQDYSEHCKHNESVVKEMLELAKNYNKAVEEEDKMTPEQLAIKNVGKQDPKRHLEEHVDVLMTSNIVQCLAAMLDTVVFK

Row | Structure (SMILES) | IC50 [µM]
1 | C=c1[nH]n(-c2nnc(C)c(=O)[nH]2)c(=O)c1=Cc1ccc(N(CC)CC)cc1 [3-{4-[1-(4-Diethylamino-phenyl)-meth-(Z)-ylidene]-3-methyl-5-oxo-4,5-dihydro-pyrazol-1-yl}-6-methyl-4H -[1,2,4]triazin-5-one] | 49.4
2 | CC(=O)C1C(=O)OC(=CC=Cc2ccccc2)C1=O (stereo not given) [3-acetyl-5-cinnamylidene-4-hydroxy-2-furanone] | 35.2
3 | CC(c1sc(S)nc1O)c1sc(S)nc1O [5-[1-(4-oxidanylidene-2-sulfanylidene-1,3-thiazolidin-5-yl)ethyl]-2-sulfanylidene-1,3-thiazolidin-4-one] | 45.4
4 | O=C1N=C(Nc2ccc(Cl)cc2Cl)SC1=Cc1c[nH]c2ccccc12 | 36.5
5 | COc1cc(C=CC(=O)C2C(=O)NC(=O)N(CCc3ccccc3)C2=O)ccc1O (stereo not given) [SMR000221203] | 29.2
6 | CCN(CC)CCOC(=O)c1ccc(N=CC(C#N)c2nc(-c3ccc(OC)c(OC)c3)cs2)cc1 (stereo not given) [SMR000434079] | 23.2
7 | C=c1[nH]c2ccc(C)cc2c1=Cc1c(N)n2oc(C)cc2nc1=O [MLS000730959] | 33.3
8 | O=C(N/N=C/C1C=C([N+](=O)[O-])C=CC1=O)c1cc(-c2ccccc2)nc2ccccc12 (stereo not given) [N'-[(E)-(3-nitro-6-oxo-1-cyclohexa-2,4-dienylidene)methyl]-2-phenyl-4-quinolinecarbohydrazide] | 14.8
9 | CCCCCCCCCCCC1N=C(N)N=C(CCCO)C1C(=O)OC (stereo not given) [SMR001565729] | 19.9
10 | O=[N+]([O-])c1ccc(N=NCc2cccn2-c2ccccc2)nc1 [SMR000161089] | 23.5
11 | CC[n+]1c(CC=Nc2ccccc2)oc2ccc(OC)cc21 | 23.2
12 | COc1cc2c3c(c1)C(C)=CC(C)(C)N3C(=O)C2=O [MLS000688351] | 8.23
13 | CSc1nsc(CC=Nc2ccc(C(=O)O)cc2)c1C#N [4-({2-[4-cyano-3-(methylsulfanyl)-5-isothiazolyl]vinyl}amino)benzenecarboxylic acid] | 24.8
14 | O=C(N/N=C/C1C=C(Cl)C=C([N+](=O)[O-])C1=O)c1ccccc1NS(=O)(=O)c1cccs1 (stereo not given) [SMR000364876] | 10.4
15 | CN(CCO)c1ccc(CN=Nc2ccc([N+](=O)[O-])cc2S(=O)(=O)Nc2ccccc2C(=O)O)cc1 | 37
16 | Cc1cc(=O)[nH]c(N=NCc2c(O)n(-c3ccccc3)c(=O)c3ccccc23)n1 [SMR000221270] | 18.4
17 | C=CCN1C(=O)C(/C=N/c2cccc([N+](=O)[O-])c2)C(=O)N(CCCC)C1=O (stereo not given) [MLS000543529] | 34
18 | O=C1c2ccccc2SC1/C=N/c1cc([N+](=O)[O-])ccc1O (stereo not given) [(2Z)-2-[[(5-nitro-2-oxidanyl-phenyl)amino]methylidene]-1-benzothiophen-3-one] | 3.28

Row | Structure (SMILES) | IC50 [µM]
19 | O=[N+]([O-])c1ccc(N=NCc2ccc[nH]2)cc1 [MLS000595102] | 8.96
20 | COc1cc(C=c2[nH]c3n(c2=O)CCCCC=3)ccc1O [SMR000149996] | 14.8
21 | Cc1[nH]c2ccccc2c1/C=C1\N=C(c2ccccc2)OC1=O [(4Z)-4-[(2-methyl-1H-indol-3-yl)methylidene]-2-phenyl-5-oxazolone] | 4.18
22 | COC1=CC(=Cc2c(C)[nH]n(-c3cccc(Br)c3)c2=O)C=C(OC)C1=O | 23.1
23 | Oc1csc(=S)n1N=Cc1ccc(Cl)s1 [3-[(5-chlorothiophen-2-yl)methylideneamino]-2-sulfanylidene-1,3-thiazolidin-4-one] | 59.4
24 | COC1=CC([N+](=O)[O-])=CC(/C=N/NC(=O)c2cc(-c3ccccc3)nc3ccccc23)C1=O (stereo not given) | 22.3
25 | CC1(C)CC(=O)C(=CNCC2CCN(C(=O)Cc3ccccc3)CC2)C(=O)C1 [5,5-dimethyl-2-[[[1-(2-phenylacetyl)piperidin-4-yl]methylamino]methylidene]cyclohexane-1,3-dione] | > 100
26 | O=C1C=CC([N+](=O)[O-])=CC1C=NN=C1NS(=O)(=O)c2ccccc21 (stereo not given) | 34.9
27 | O=[N+]([O-])c1ccc(N=NCc2c[nH]c3ccccc23)cc1 [MLS000573812] | 1.77
28 | CCOC(=O)C1C(=O)C(=Cc2ccc(-c3ccccc3C(=O)O)o2)SC1=Nc1ccc(OC)cc1 (stereo not given) | 17.8
29 | Cc1[nH]n(-c2ccccc2)c(=O)c1C=C1NC(=S)NC1=O [5-methyl-4-[(Z)-(5-oxo-2-sulfanylideneimidazolidin-4-ylidene)methyl]-2-phenyl-4H-pyrazol-3-one] | 32.4
30 | O=c1c(Cl)c(N=NCc2ccc(Br)cc2)cnn1-c1ccccc1 | 21.2
31 | COC1=CC([N+](=O)[O-])=CC(/C=N/NC(=O)c2cncc(Br)c2)C1=O (stereo not given) [5-bromo-N'-[(E)-(5-methoxy-3-nitro-6-oxo-1-cyclohexa-2,4-dienylidene)methyl]-3-pyridinecarbohydrazide] | 49.5
32 | C=C(C=C(C)c1sc(S)nc1O)c1sc(S)nc1O [MLS000723803] | 43.6
33 | CCN(CC)CCOC(=O)c1ccc(N=CC(C#N)c2nc(-c3ccc4c(c3)OCO4)cs2)cc1 (stereo not given) [2-(diethylamino)ethyl 4-[[(Z)-2-[4-(1,3-benzodioxol-5-yl)-1,3-thiazol-2-yl]-2-cyano-ethenyl]amino]benzoate] | 31.4
34 | CC1=NC(=O)NC(c2ccc(N3CCOCC3)cc2)C1C(=O)c1ccccc1 (stereo not given) [5-benzoyl-6-methyl-4-[4-(4-morpholinyl)phenyl]-3,4-dihydro-1H-pyrimidin-2-one] | 17.1
35 | NS(=O)(=O)c1ccc(N=CCC(=O)c2ccc3ccccc3c2)cc1 [4-(3-Naphthalen-2-yl-3-oxo-propenylamino)-benzenesulfonamide] | 28.6
